Reference: US20160090556A1, “PRODUCTS COMPRISING MALODOR REDUCTION MATERIALS” (The Procter & Gamble Company, priority 2014, published 2016)
“And” between values parts separate entries of the source, which are not always exact repeats. Equal entries are not always repeated. Where two headings read alike, the source gives them in different places.

Columns and labels:
[1] = Fragrance Fidelity Index (FFI) assigned by perfumers/expert graders on fabric swatches; set-up: species or system human; key: FFI grade on reference scale anchored by 0, 1, 2, 3 swatches
Excerpt: (§1) Blocker materials suitable for use in consumer products of the present invention are chosen for their ability to decrease malodor, while not interfering with perception of a fragrance. Material selection is done by assigning two indices to a test sample material from two reference scales in order to rank odor strengths. The two reference scales are the Fragrance Fidelity Index (FFI) scale and the Blocker Index (BI) scale. The FFI ranks the ability of the test sample material to impart a perceivable odor which could cause interference when combined with another fragrance and the BI ranks the ability of the test sample material to reduce malodor perception. The two methods for assigning the indices to a test sample on the FFI and the BI reference scales are given below.
(§2) The first step in the method for assigning an FFI to the test samples on the FFI reference scale is to create the FFI reference swatches. […] Fabric swatches for this test are white knit polycotton (4 inch×4 inch) swatches from EMC ordered as PC 50/50. The supplier is instructed to strip the swatches first, stripping involves washing twice with a fragrance-free detergent and rinsing three times.
Pipette 13 μL of each of the three solutions into the middle of a clean swatch resulting in about a 1 cm diameter of the solution in the middle of the swatch. This will create a sensory scale of three swatches with three different odor levels based on the concentration of the solution pipetted onto the swatch. After drying for 30 minutes in a vented hood, the swatches are wrapped in aluminum foil to prevent odor contamination to the treated swatch. A clean untreated swatch is also included as the lowest anchor point of reference for odor strength on the FFI scale. The FFI reference scale swatches should be used within 0.5 to 12 hours and discarded after 12 hours. The swatches are used as scale anchor points when graders evaluate a test sample(s) and are assigned a Fragrance Fidelity Index (FFI) as show in Table 7.
The perfumer/expert panel is asked to rank order swatches according to a scale between 0 and 3.
The reference swatches represent the 0, 1, 2, and 3 FFIs on the FFI reference scale, Table 9. The expert grader should familiarize them self with the strength of the odor on the FFI reference swatches by sniffing each one starting at 0 (the lowest odor strength) and ending at 3 (the highest odor strength). This should be done prior to evaluating the test sample material treated swatch.
A clean swatch is treated with 13 μL of a known concentration of a test sample material resulting in an about 1 cm of the solution on the clean swatch. Just like the reference swatches, the test sample material swatch is dried in a vented hood for 30 minutes and then wrapped in aluminum foil to prevent contamination. The test material swatches and the FFI reference swatches should be made within 2 hours of each other. The test material swatch must be used within 0.5 to 12 hours and discarded after 12 hours.
At least two perfumers/expert graders are used to assign an FFI grade to a test sample. The perfumer/expert grader smells the test sample swatch by holding that swatch 1 inch from their nose with their nose centered over the area where the test sample was pipetted on to the fabric and then assigns the test sample an FFI grade using the FFI reference scale anchor swatches as references. In cases where the test sample material is graded greater than 3, the test material is not a blocker material or the concentration of the material needs to be lowered and reevaluated to determine if a lower level has a malodor blocker functionality.

[2] = Blocker Index (BI) assigned by perfumers/expert graders on isovaleric acid swatches; set-up: species or system human; key: BI odor strength 0 (lowest, clean swatch) to 3 (highest)
Excerpt: as §1
as §2, with “assigning a BI” for “assigning an FFI”, “to a” for “to the”, “test sample material” for “test samples”, “the BI” for “the FFI”
The BI scale contains one clean swatch with no malodor applied. […] These solutions are pipetted to the middle of the swatches. […] After drying for 30 minutes in a vented hood, the swatches are wrapped in aluminum foil to prevent odor contamination to the treated swatch. A clean untreated swatch is also included as the lowest anchor point of reference for malodor strength on the BI scale. The BI reference scale swatches should be used within 0.5 to 12 hours and discarded after 12 hours. The swatches are used as scale anchor points when graders evaluate a test sample(s) and are assigned a Blocker Index (BI) as show in Table 12.
The perfumer/expert grader is asked to rank order swatches according to a scale between 0 and 3.
The reference swatches represent the 0, 1, 2, and 3 BIs on the BI reference scale, Table 12. The expert grader should familiarizes him/herself with the strength of the odor on the BI reference swatches by sniffing each one starting at 0 (the lowest odor strength) and ending at 3 (the highest odor strength). This should be done prior to evaluating the swatch treated with the test material.
To evaluate the BI, the test material is applied to a malodorous swatch to determine how well the test material blocks the malodor. […] After drying the malodorous swatch a known concentration of test material solution, between 1 ppm and 100 ppm is pipetted onto the malodorous swatch. […] It is sometimes necessary to evaluate several levels of the test material between about 1 and about 100 ppm to determine the BI.
At least two perfumers/expert graders are used to assign the BI to the test sample. […] The test sample swatch is assigned a BI at or between numbers on the BI in table.

[3] = Liquid dish neat product liquid-air partition coefficient; assay type: physicochemical
[4] = Probability of Ingredient Color Instability; assay type: physicochemical
[5] = Conc 50 ppm test material on swatch
[6] = Conc 50 ppm test material on isovaleric acid swatch
[7] = Conc 10 ppm test material on swatch
[8] = Conc 10 ppm test material on isovaleric acid swatch
[9] = codes K/L of the Comment Code, Table 1
[10] = class code letter within Comment Code

Structure (SMILES)	FFI [1, 5]	BI [2, 6]	FFI [1, 7]	BI [2, 8]	further results
C=CC(C)=CCC=C(C)C [Material 524]	0	2.8	–	–	–
CCOC(=O)OC1C(C)CCC(C)C1C (stereo not shown) [Material 1005]	0.5	2.6	–	–	–
CCCCCCCCCCCCO [Material 174]	0.5	2.3	–	–	–
O=C1CCC2CCCCC2O1 (stereo not shown) [3,4,4a,5,6,7,8,8a-octahydrochromen-2-one]	0	2.0	0	2.0	–
CCCCCCCCCCCO [Undecanol]	0.8	2.3	–	–	–
COC(=O)OC1CC/C=C\CCC1 (stereo not shown) [Material 1139]	1.0	2.7	0	2.0	–
CC(C)(C)C1CCCCC1 [4-tert-butyl cyclohexane]	0.3	2.0	0	2.0	–
C=C1CCC2OC2(C)CCC2C1CC2(C)C (stereo not shown) [Material 1148]	0.5	2.3	–	–	Comment Code: Log of liquid dish neat product liquid-air partition coefficient ([3]; code letters K, L): K (Log of liquid dish neat product liquid-air partition coefficient greater than or equal to −7); Comment Code: Log of liquid dish neat product liquid-air partition coefficient [3, 9]: K (Log of liquid dish neat product liquid-air partition coefficient greater than or equal to −7)
CC(CCO)CCc1ccccc1 (stereo not shown) [Material 962]	0.5	1.7	0	2.3	–
CCCCCCCCCCCC(=O)OCC [Material 391]	0.3	2.2	–	–	Log of liquid dish neat product liquid-air partition coefficient (Comment Code K/L) [3, 10]: K (Log of liquid dish neat product liquid-air partition coefficient greater than or equal to −7)
CC(C)CC(=O)O [isovaleric acid, reference compound]	–	–	–	–	BI grade of reference swatch, Ave ([2]; 2 μL 0.08%, all graders (Table 10)): 1.0; BI grade of reference swatch, individual Expert Grader ([2]; stripped swatch with 2 μL 0.08%): 0.5 and 1.0; BI grade of reference swatch, individual Expert Grader ([2]; stripped swatch with 5 μL 0.08%): 2.5; BI grade of reference swatch, individual Expert Grader ([2]; stripped swatch with 20 μL 0.08%): 2.5
CC(=O)OCCCCCCC(C)C [Material 204]	0	2.7	0	2.0	–
CC1(C)C2CCC3(C2)C1C(=O)CCC3(C)C (stereo not shown) [Material 1149]	0.8	2.3	0	1.5	Comment Code: Log of liquid dish neat product liquid-air partition coefficient ([3]; code letters K, L): K (Log of liquid dish neat product liquid-air partition coefficient greater than or equal to −7); Comment Code: Log of liquid dish neat product liquid-air partition coefficient [3, 9]: K (Log of liquid dish neat product liquid-air partition coefficient greater than or equal to −7)
CCC(O)COC1CCCCC1C(C)(C)C (stereo not shown) [Material 677]	1.8	2.0	0	2.3	Log of liquid dish neat product liquid-air partition coefficient (Comment Code K/L) [3]: K (Log of liquid dish neat product liquid-air partition coefficient greater than or equal to −7)
CC1(C)CCc2ccc(CCC=O)cc21 [Material 261]	1.3	1.3	0	1.8	Log of liquid dish neat product liquid-air partition coefficient (Comment Code K/L) [3, 10]: K (Log of liquid dish neat product liquid-air partition coefficient greater than or equal to −7); Comment Code: Log of liquid dish neat product liquid-air partition coefficient ([3]; code letters K, L): K (Log of liquid dish neat product liquid-air partition coefficient greater than or equal to −7)
CCCCCCCCCCCCCCCC(=O)OC [Material 109]	–	–	–	2.0	Log of liquid dish neat product liquid-air partition coefficient (Comment Code K/L) [3, 10]: K (Log of liquid dish neat product liquid-air partition coefficient greater than or equal to −7)
CC(=O)OC1CC2CC1C1CC=CC21 (stereo not shown) [Material 281]	0.5	2.0	0	2.0	Log of liquid dish neat product liquid-air partition coefficient (Comment Code K/L) [3, 10]: K (Log of liquid dish neat product liquid-air partition coefficient greater than or equal to −7); Comment Code: Log of liquid dish neat product liquid-air partition coefficient ([3]; code letters K, L): K (Log of liquid dish neat product liquid-air partition coefficient greater than or equal to −7)
CC1=C2CCC3(C)OC3C2C(C)(C)CCC1 (stereo not shown) [Material 624]	–	–	–	–	Probability of Ingredient Color Instability (Comment Code E/F) [4]: F (Probability of Ingredient Color Instability<71%); Log of liquid dish neat product liquid-air partition coefficient (Comment Code K/L) [3]: K (Log of liquid dish neat product liquid-air partition coefficient greater than or equal to −7); Comment Code: Log of liquid dish neat product liquid-air partition coefficient ([3]; code letters K, L): K (Log of liquid dish neat product liquid-air partition coefficient greater than or equal to −7)
